Consider nine compounds from US6331555A, “Treatment of platelet derived growth factor related disorders such as cancers” (priority 1999, dated 2001).

Like-named read-outs stand apart in the source and are kept apart here.

The test system of data set [1] is U1242 cells. Description: Cytotoxicity in U1242 cells, MTT. Particulars: for CC50: Homo sapiens, read-out: CYTOXICITY MTT U1242 LD50, heading: CYTOXICITY MTT U1242 LD50; for LD50 compared to A10: MTT or LDH. The format is cell-based, human. Here is the method: (§1) The cytotoxicity of each drug was also determined. The cells were plated as described above. Following incubation with drug, cell survival was measured by an MTT assay as described by Mossman J. Immunol. Methods 65:55-63 (1983), or by measuring the amount of LDH released (Korzeniewski and Callewaert, J. Immunol. Methods 64:313 (1983); Decker and Lohmann-Matthes, J. Immunol. Methods 115:61 (1988) .

Another data set addresses PDGFR (Homo sapiens, UniProt P09619). Put plainly: PDGF-stimulated receptor phosphorylation in U1242 cells, ELISA. The format is cell-based. Set-up: U1242 (PDGF-β receptor); host or cells: U1242 MG glioma cells. The conditions noted are these: for IC50: 100 ng/ml PDGF-BB, read-out: ELISA P-TYR U1242 IC50. The essentials:
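U1242 MG cells in 0.5% serum were pretreated with compound for 2 h at 37° C, then stimulated 5–10 min with PDGF-BB (100 ng/ml). Lysates captured on anti-PDGF receptor-coated plates; receptor phosphotyrosine detected by anti-phosphotyrosine ELISA with POD/ABTS read-out at 410 nm.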
A general note: An ELISA detects its analyte on a solid surface through an enzyme-linked reagent.

The next data set has as its target T1, PDGF-R (U1242) (Homo sapiens, UniProt P09619).
T1 construct: U1242 (PDGF-β receptor); host or cells: U1242 MG glioma cells
Description: U1242 kinase (PDGF-R activity). The format is cell-based. The method, boiled down:
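For ELISA, cells were held overnight in 0.5% serum, then treated with compound for 2 h at 37 °C in serum-free medium. Lysate phosphotyrosine was detected with polyclonal anti-phosphotyrosine antibody. In western blots, cells were stimulated with ligand for 7 min at room temperature and probed with anti-phosphotyrosine (1:3000).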

The test system of data set [2] is U1242 cells. Put plainly: Cytotoxicity in U1242 cells, LDH. The format is cell-based. The conditions noted are these: Homo sapiens, read-out: CYTOXICITY LDH U1242 LD50. Here is the method: as §1
[3] abbreviates: W = done in Western assay, read-out: U1242 KINASE IC50 (W).
Setting [4] is: heading: CYTOXICITY LDH U1242 LD50.

Chain of PDGFR (P09619 33-1106): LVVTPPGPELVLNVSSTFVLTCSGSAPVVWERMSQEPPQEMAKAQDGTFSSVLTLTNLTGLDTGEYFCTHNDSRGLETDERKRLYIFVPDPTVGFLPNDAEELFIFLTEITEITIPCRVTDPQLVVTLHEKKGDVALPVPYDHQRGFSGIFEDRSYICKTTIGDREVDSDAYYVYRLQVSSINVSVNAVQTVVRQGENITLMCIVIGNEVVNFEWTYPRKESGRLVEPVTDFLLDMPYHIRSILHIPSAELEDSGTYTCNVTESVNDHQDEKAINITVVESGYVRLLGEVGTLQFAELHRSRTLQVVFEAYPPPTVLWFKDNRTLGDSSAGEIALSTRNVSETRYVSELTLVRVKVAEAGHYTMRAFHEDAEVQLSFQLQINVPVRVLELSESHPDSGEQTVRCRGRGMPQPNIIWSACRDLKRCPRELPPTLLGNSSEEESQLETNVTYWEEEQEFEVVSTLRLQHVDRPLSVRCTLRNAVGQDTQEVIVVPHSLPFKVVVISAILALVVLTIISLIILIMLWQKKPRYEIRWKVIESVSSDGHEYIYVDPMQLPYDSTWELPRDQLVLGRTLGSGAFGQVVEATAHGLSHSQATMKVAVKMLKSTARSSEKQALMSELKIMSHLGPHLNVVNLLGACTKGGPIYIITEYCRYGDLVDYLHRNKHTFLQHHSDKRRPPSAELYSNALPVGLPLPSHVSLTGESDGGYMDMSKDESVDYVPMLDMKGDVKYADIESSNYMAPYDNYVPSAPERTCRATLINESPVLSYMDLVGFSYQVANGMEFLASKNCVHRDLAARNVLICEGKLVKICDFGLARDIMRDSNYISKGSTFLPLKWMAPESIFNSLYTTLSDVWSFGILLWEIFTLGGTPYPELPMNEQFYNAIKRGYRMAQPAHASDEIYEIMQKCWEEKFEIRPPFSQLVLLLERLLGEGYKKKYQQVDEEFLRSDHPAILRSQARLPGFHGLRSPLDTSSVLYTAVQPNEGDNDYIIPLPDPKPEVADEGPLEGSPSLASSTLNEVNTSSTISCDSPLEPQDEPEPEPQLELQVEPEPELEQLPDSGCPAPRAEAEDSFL
T1 sequence (P09619 33-1106): as above

For orientation: IC50 means the concentration that gives 50% inhibition. For `N#CC(=Cc1c[nH]c2ccccc12)C(N)=S` [Compound D11], the CC50 in the data set on U1242 cells [1] was 90 µM. Also, the IC50 on PDGFR is 8 µM.

Consider `COc1cc2ncc(-c3ccccc3)nc2cc1OC` [Compound G14], for which the IC50 at PDGF-R (U1242) (setting [3]) and at PDGFR was 0.8 µM in each case. Moreover, the “LD50 compared to A10” value in the data set on U1242 cells [1] is reported as “LD50 less than A10”. Also, the “inhibition of PDGF-stimulated receptor phosphorylation” value against PDGFR was “had the lowest IC50”. For the same compound, in the data set on U1242 cells [2] (setting [4]), the CC50 was over 100 µM.

With `c1ccc(-c2cnc3cc4ccccc4cc3n2)cc1` [Compound G22], the IC50 was found to be 0.9 µM on PDGF-R (U1242) (setting [3]), 14 µM at PDGF-R (U1242) (read-out: U1242 KINASE IC50) and 1 µM at PDGFR. Also, in the data set on U1242 cells [2], the CC50 was over 100 µM.

For the compound `Cc1oncc1C(=O)Nc1ccc(C(F)(F)F)cc1` [Compound A10, 5-methylisoxazole-4 carboxylic acid-(4-trifluromethyl)-anilide], the IC50 on PDGFR turned out to be 65 µM.

On to `Cc1cc2ncc(-c3ccccc3)nc2cc1C` [Compound G13], for which the values for the CC50 with U1242 cells [1] and with U1242 cells [2] (setting [4]) were 100 µM and over 100 µM, respectively. Moreover, the “LD50 compared to A10” value with U1242 cells [1] was “LD50 less than A10”. For the same compound, the “inhibition of PDGF-stimulated receptor phosphorylation” value against PDGFR is reported as “had the lowest IC50”.

In the case of `Cc1cc2nc(-c3ccccc3)c(=O)[nH]c2cc1C` [Compound G18], the IC50 at PDGFR was 10 µM. For the same compound, in the data set with U1242 cells [2], the CC50 is over 100 µM.

Consider `O=c1c2ccccc2nc(C=Cc2ccc(O)c(O)c2)n1CCO` [Compound F10], for which the IC50 on PDGF-R (U1242) (setting [3]) and on PDGFR was 45 µM each time.

As for `CN(C)CCCn1cc(C=C(C#N)c2[nH]nc(N)c2C#N)c2ccccc21` [Compound D15], in the data set with U1242 cells [1], the CC50 was found to be 80 µM. The IC50 on PDGFR was determined as 20 µM.

Take `N#CC(=Cc1c[nH]c2ccccc12)c1[nH]nc(N)c1C#N` [Compound D14]: the IC50 at PDGFR is 20 µM. Also, in the data set with U1242 cells [2], the CC50 was over 100 µM.
